Measurements: patent US20140377337A1 (priority 2012, published 2014)

Experiments:
[1] = test system: high myopia; details: intravenously administered PGE1, conclusion of the cited publication; cited from earlier work
[2] = test system: ocular district; test: Blood flow / anti-ischemic effect in the ocular district after PGE1 cream on the inner forearm; type: in vivo, patient

SMILES: CCCCC[C@H](O)/C=C/[C@H]1[C@H](O)CC(=O)[C@@H]1CCCCCCC(=O)O [PGE1, prostaglandin E1]
- duration of the effect of the intravenous administration [1]: 6-8 weeks
- anti-ischemic effects in the ocular district versus 60 micrograms of PGE1 by intravenous infusion ([2]; cream 20 μg per ml, patient weighing 60 kg, total dose 4 ml of cream (80 μg total of PGE1), transdermal): comparable
- effect on blood flow at the ocular district level ([2]; cream with 10-30 micrograms of PGE1 per ml, applied on the inner forearm): increased blood flow
